Test results from patent US11965039B2, “Compstatin analogues and their medical uses” (priority 2018, dated 2024).
Starred links: 1 amine or outer side, 2 acyl side, 3 side chain; linkers in the order of their positions; H or OH if unused. Positions of bridges follow the written chain, without caps; N, C: chain ends. Non-standard residues stand in square brackets, D forms with d. Residues, ends and D or L forms follow the SMILES beside them. Groups on a side chain read outwards from the residue. *: point of attachment. Trp(1-Me) = Cn1cc(C[C@H](N)C(=O)O)c2ccccc21; C18 diacid = O=C(O)CCCCCCCCCCCCCCCCC(=O)*; C16 diacid = O=C(O)CCCCCCCCCCCCCCC(=O)*; γGlu = O=C(O)[C@H](CCC(=O)[*:2])N[*:1]; AEEA = NCCOCCOCC(=O)O; Sar = CNCC(=O)O

Columns and labels:
[1] = tested on: classical complement pathway; experiment: In vitro haemolysis assay (inhibition of classical complement pathway); assay type: cell-based, human; settings: human serum, sensitized sheep red blood cells; Table 3, given as upper bounds; read-out: IC50, inhibition of hemolysis
Procedure, shortened: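 Compound dilutions preincubated 15 min at room temperature with diluted human serum (titrated per batch for 70-90% maximal haemolysis), then antibody-sensitized sheep RBC (10^7/well) added for 30 min at 37 °C in Tris/casein buffer, pH 7.4. Stopped with EDTA; haemolysis read at 405 nm; IC50 by 4PL fit.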

[2] = Solubility test at 10 mg/mL (visual inspection and light scattering); assay type: physicochemical; settings: for Solubility, Condition 1: Acetate pH 4; for Solubility, Condition 2: Acetate pH 5; for Solubility, Condition 3: Phosphate pH 6; for Solubility, Condition 4: Phosphate pH 7; for Solubility, Condition 5: Phosphate pH 7.5

SMILES	IC50 [1] [µM]	Solubility, Condition 1 [2]	Solubility, Condition 2 [2]	Solubility, Condition 3 [2]	Solubility, Condition 4 [2]	Solubility, Condition 5 [2]
CC[C@H](C)[C@H](NC(C)=O)C(=O)N[C@H]1CSSC[C@@H](C(=O)N[C@H](C(=O)N[C@@H](CCC(=O)O)C(=O)N[C@@H](C)C(N)=O)[C@@H](C)O)NC(=O)[C@H](CCCNC(=N)N)NC(=O)[C@H](Cc2c[nH]cn2)NC(=O)[C@H](CCC(=O)O)NC(=O)CNC(=O)[C@H](Cc2c[nH]c3ccccc23)NC(=O)[C@H](CC(=O)O)NC(=O)[C@H](CCC(N)=O)NC(=O)[C@H](Cc2c[nH]c3ccccc23)NC(=O)[C@H]([C@@H](C)CC)NC1=O [Compound 25] (Ac-ICIWQDWGEHRCTEA-NH2; disulfide 2-12)	< 0.1	+ (“+” denotes solubility at the given condition, as determined by UV absorbance being less than 0.1 AU at 340 nm and the sample being clear when manually inspected)	− (“−” denotes lack of solubility at the given condition, as UV absorbance at 340 nm exceeds 0.1 AU and/or it is visibly turbid or contains particles)	− (“−” denotes lack of solubility at the given condition, as UV absorbance at 340 nm exceeds 0.1 AU and/or it is visibly turbid or contains particles)	+ (“+” denotes solubility at the given condition, as determined by UV absorbance being less than 0.1 AU at 340 nm and the sample being clear when manually inspected)	+ (“+” denotes solubility at the given condition, as determined by UV absorbance being less than 0.1 AU at 340 nm and the sample being clear when manually inspected)
CC[C@H](C)[C@@H]1NC(=O)[C@@H](NC(=O)[C@H](Cc2ccc(O)cc2)NC(=O)[C@H](CCC(=O)O)NC(=O)[C@H](CO)NC(=O)CNC(=O)[C@H](CCC(=O)O)NC(=O)CCCCCCCCCCCCCCCCC(=O)O)CSSC[C@@H](C(=O)N(C)CC(=O)N[C@@H](CCC(=O)O)C(N)=O)NC(=O)[C@H](CCCNC(=N)N)NC(=O)[C@H](Cc2c[nH]cn2)NC(=O)[C@H](CCC(=O)O)NC(=O)CNC(=O)[C@H](Cc2c[nH]c3ccccc23)NC(=O)[C@H](CC(=O)O)NC(=O)[C@H](CCC(N)=O)NC(=O)[C@H](Cc2cn(C)c3ccccc23)NC1=O [Compound 108] ({C18 diacid}-EGSEYCI[Trp(1-Me)]QDWGEHRC[Sar]E-NH2; disulfide 6-16)	< 0.5	− (“−” denotes lack of solubility at the given condition, as UV absorbance at 340 nm exceeds 0.1 AU and/or it is visibly turbid or contains particles)	− (“−” denotes lack of solubility at the given condition, as UV absorbance at 340 nm exceeds 0.1 AU and/or it is visibly turbid or contains particles)	+ (“+” denotes solubility at the given condition, as determined by UV absorbance being less than 0.1 AU at 340 nm and the sample being clear when manually inspected)	+ (“+” denotes solubility at the given condition, as determined by UV absorbance being less than 0.1 AU at 340 nm and the sample being clear when manually inspected)	+ (“+” denotes solubility at the given condition, as determined by UV absorbance being less than 0.1 AU at 340 nm and the sample being clear when manually inspected)
CC[C@H](C)[C@@H]1NC(=O)[C@@H](NC(=O)[C@H](Cc2ccccc2)NC(=O)[C@H](CCC(=O)O)NC(=O)[C@H](CO)NC(C)=O)CSSC[C@@H](C(=O)N(C)CC(=O)N[C@@H](CCC(=O)O)C(=O)N[C@@H](C)C(N)=O)NC(=O)[C@H](CCCNC(=N)N)NC(=O)[C@H](Cc2c[nH]cn2)NC(=O)[C@H](CCC(=O)O)NC(=O)CN(C)C(=O)[C@H](Cc2c[nH]c3ccccc23)NC(=O)[C@H](CC(=O)O)NC(=O)[C@H](CCC(N)=O)NC(=O)[C@H](Cc2cn(C)c3ccccc23)NC1=O [Compound 76, Ac-SEFC(1)I[1-Me-Trp]QDW[Sar]EHRC(1)[Sar]EA-NH2] (Ac-SEFCI[Trp(1-Me)]QDW[Sar]EHRC[Sar]EA-NH2; disulfide 4-14)	< 0.1	− (“−” denotes lack of solubility at the given condition, as UV absorbance at 340 nm exceeds 0.1 AU and/or it is visibly turbid or contains particles)	− (“−” denotes lack of solubility at the given condition, as UV absorbance at 340 nm exceeds 0.1 AU and/or it is visibly turbid or contains particles)	+ (“+” denotes solubility at the given condition, as determined by UV absorbance being less than 0.1 AU at 340 nm and the sample being clear when manually inspected)	+ (“+” denotes solubility at the given condition, as determined by UV absorbance being less than 0.1 AU at 340 nm and the sample being clear when manually inspected)	+ (“+” denotes solubility at the given condition, as determined by UV absorbance being less than 0.1 AU at 340 nm and the sample being clear when manually inspected)
CC[C@H](C)[C@H](NC(=O)[C@H](C)NC(=O)[C@H](CO)NC(C)=O)C(=O)N[C@H]1CSSC[C@@H](C(=O)N(C)CC(=O)N[C@@H](CCC(=O)O)C(N)=O)NC(=O)[C@H](CCCNC(=N)N)NC(=O)[C@H](Cc2c[nH]cn2)NC(=O)[C@H](CCC(=O)O)NC(=O)CNC(=O)[C@H](Cc2c[nH]c3ccccc23)NC(=O)[C@H](CC(=O)O)NC(=O)[C@H](CCC(N)=O)NC(=O)[C@H](Cc2c[nH]c3ccccc23)NC(=O)[C@H]([C@@H](C)CC)NC1=O [Compound 41] (Ac-SAICIWQDWGEHRC[Sar]E-NH2; disulfide 4-14)	< 0.25	− (“−” denotes lack of solubility at the given condition, as UV absorbance at 340 nm exceeds 0.1 AU and/or it is visibly turbid or contains particles)	− (“−” denotes lack of solubility at the given condition, as UV absorbance at 340 nm exceeds 0.1 AU and/or it is visibly turbid or contains particles)	+ (“+” denotes solubility at the given condition, as determined by UV absorbance being less than 0.1 AU at 340 nm and the sample being clear when manually inspected)	+ (“+” denotes solubility at the given condition, as determined by UV absorbance being less than 0.1 AU at 340 nm and the sample being clear when manually inspected)	+ (“+” denotes solubility at the given condition, as determined by UV absorbance being less than 0.1 AU at 340 nm and the sample being clear when manually inspected)
CC[C@H](C)[C@@H]1NC(=O)[C@@H](NC(=O)[C@@H](NC(=O)[C@H](CCC(=O)O)NC(C)=O)[C@@H](C)CC)CSSC[C@@H](C(=O)N[C@H](C(=O)N[C@@H](CCC(=O)O)C(N)=O)[C@@H](C)O)NC(=O)[C@H](CCCNC(=N)N)NC(=O)[C@H](Cc2c[nH]cn2)NC(=O)[C@H](CCC(=O)O)NC(=O)CNC(=O)[C@H](Cc2c[nH]c3ccccc23)NC(=O)[C@H](CC(=O)O)NC(=O)[C@H](CCC(N)=O)NC(=O)[C@H](Cc2c[nH]c3ccccc23)NC1=O [Compound 33] (Ac-EICIWQDWGEHRCTE-NH2; disulfide 3-13)	< 0.1	− (“−” denotes lack of solubility at the given condition, as UV absorbance at 340 nm exceeds 0.1 AU and/or it is visibly turbid or contains particles)	− (“−” denotes lack of solubility at the given condition, as UV absorbance at 340 nm exceeds 0.1 AU and/or it is visibly turbid or contains particles)	+ (“+” denotes solubility at the given condition, as determined by UV absorbance being less than 0.1 AU at 340 nm and the sample being clear when manually inspected)	+ (“+” denotes solubility at the given condition, as determined by UV absorbance being less than 0.1 AU at 340 nm and the sample being clear when manually inspected)	+ (“+” denotes solubility at the given condition, as determined by UV absorbance being less than 0.1 AU at 340 nm and the sample being clear when manually inspected)
CC[C@H](C)[C@@H]1NC(=O)[C@@H](NC(=O)[C@H](Cc2ccccc2)NC(C)=O)CSSC[C@@H](C(=O)N[C@H](C(=O)NCC(=O)N[C@@H](C)C(=O)N[C@@H](CCC(=O)O)C(=O)N[C@@H](CO)C(=O)N[C@@H](CCCCNC(=O)COCCOCCNC(=O)COCCOCCNC(=O)CC[C@H](NC(=O)CCCCCCCCCCCCCCC(=O)O)C(=O)O)C(N)=O)[C@@H](C)O)NC(=O)[C@H](CCCNC(=N)N)NC(=O)[C@H](Cc2c[nH]cn2)NC(=O)[C@H](CCC(=O)O)NC(=O)CNC(=O)[C@H](Cc2c[nH]c3ccccc23)NC(=O)[C@H](CC(=O)O)NC(=O)[C@H](CCC(N)=O)NC(=O)[C@H](Cc2cn(C)c3ccccc23)NC1=O [Compound 102] (Ac-FCI[Trp(1-Me)]QDWGEHRCTGAESK([AEEA-AEEA-γGlu-C16 diacid])-NH2; disulfide 2-12)	< 0.1	− (“−” denotes lack of solubility at the given condition, as UV absorbance at 340 nm exceeds 0.1 AU and/or it is visibly turbid or contains particles)	+ (“+” denotes solubility at the given condition, as determined by UV absorbance being less than 0.1 AU at 340 nm and the sample being clear when manually inspected)	+ (“+” denotes solubility at the given condition, as determined by UV absorbance being less than 0.1 AU at 340 nm and the sample being clear when manually inspected)	+ (“+” denotes solubility at the given condition, as determined by UV absorbance being less than 0.1 AU at 340 nm and the sample being clear when manually inspected)	+ (“+” denotes solubility at the given condition, as determined by UV absorbance being less than 0.1 AU at 340 nm and the sample being clear when manually inspected)
